Experimental data reported in patent US20260174747A1, “COMPUTER IMPLEMENTED METHODS OF GENERATING DOSE RECOMMENDATIONS” (National University of Singapore, priority 2022, published 2026).

Test: Retrospective analysis of tacrolimus trough levels (TTL) under SOC dosing, 30 days after pediatric liver transplantation
Type: in vivo, pediatric liver transplant patients
Description: CURATE.AI requires two components to be supplied into the platform as inputs: the administered tacrolimus dose in mg (dose) and the corresponding TTL in ng/ml (response) to generate a personalized profile for each patient. […] The response input was the corresponding TTL response measured the next day, right before the morning dose. Days with two measurements of TTL (taken in the morning and evening) instead of one, which is the standard frequency, were excluded. TTL measurements <2 ng/ml were assessed to be inaccurate as the measurement equipment was unable to provide resolution for TTL<2 ng/ml, and were thus excluded. All measurements in the records were only taken once each. Doses recorded from day 30 post-transplant onwards were not included as part of this study since it is during the initial post-transplant period that fluctuations in TTL are common; thereby requiring frequent adjustments in drug dosing. […] Doses recorded from the day of discharge onwards were assessed to be unreliable, as confirmation of the doses administered was not possible, and thus excluded. This study used dose-response pairs over a set of consecutive days for each patient for the analysis by CURATE.AI. Dose ranges were categorized as low (<2 mg), medium (2 mg to <4 mg), and high (≥4 mg).
The normality of the data distribution was tested with the Shapiro-Wilk test. Continuous variables were represented as mean (standard deviation (SD)) or median (interquartile range (IQR)), depending on the normality of the data type. Two-sided Wilcoxon signed-rank test was used to compare the medians of two non-parametric groups. Two-sided paired t-test was used to compare the means of two related parametric groups. The statistical significance was defined as p<0.05. All analyses were performed in Python (version 3.9.13).
The grey region represents the therapeutic range of between and inclusive of 7 and 10 ng/ml. Blue and orange markers represent TTL outside and within the therapeutic range, respectively. […]

days within the therapeutic range (TTL 7 to 10 ng/ml), mean (16 patients, mean (SD)): 42.18 % of days
mean TTL (tacrolimus trough level) (all 16 patients, first 30 days post-transplant, mean (SD)): 8.79 ng/mL
time to first achieve the therapeutic range (TTL 7 to 10 ng/ml), median (median (IQR)): 5.00 days
Compound: C=CC[C@@H]1/C=C(\C)C[C@H](C)C[C@H](OC)[C@H]2O[C@@](O)(C(=O)C(=O)N3CCCC[C@H]3C(=O)O[C@H](/C(C)=C/[C@@H]3CC[C@@H](O)[C@H](OC)C3)[C@H](C)[C@@H](O)CC1=O)[C@H](C)C[C@@H]2OC [tacrolimus]
